Assay results published in US7141606B2, “Gabapentin analogues for sleep disorders” (Warner-Lambert Company, priority 2000, dated 2006).

System: Male Sprague-Dawley rats
Assay: EEG/EMG sleep recording in rats: time in NREMS for 12 hours after PO dosing
Type: in vivo, rat
Conditions: for Total Minutes (Mean ± SEM) NREMS for 12-Hour Postinjection: rats, N = 8/Treatment, just prior to onset of light phase
Description: Male Sprague-Dawley rats weighing 250 to 360 g were used for the experiment. The rats were kept on a 12:12-hr light/dark cycle (lights on at 0900) at 23±1° C. ambient temperature. They had free access water and food during the experiment. Stainless steel jewelry screws for EEG recording were placed over the frontal and parietal cortices. An EMG electrode was implanted in the dorsal neck muscles.
Recording and analyses. After the recovery period (at least 1 week), rats were moved to sleep recording chambers. The rats were allowed relatively unrestricted movement inside the recording cages. A flexible tether connected the electrodes led to an electronic swivel. The leads from the swivel were routed to Grass Model No. 7D polygraphs in an adjacent room for recording EEG and EMG activity. The vigilance states of wakefulness, nonrapid-eye-movement sleep (NREMS), and rapid-eye-movement sleep (REMS) were determined offline in 10 second epochs. The amount of time spent in each vigilance state was calculated every hour and totaled for the 12-hour period post injection. Drug or vehicle were administered PO just prior to the onset of the light phase of the rat's light/dark cycle. Each rat received a vehicle and one drug dose. Results

| SMILES | Total Minutes (Mean ± SEM) NREMS for 12-Hour Postinjection (3 mg/kg PO) | Total Minutes (Mean ± SEM) NREMS for 12-Hour Postinjection (10 mg/kg PO) | Total Minutes (Mean ± SEM) NREMS for 12-Hour Postinjection (30 mg/kg PO) | Effect on NREMS in rats during the 12-hour period following injection (rats, 3, 10, and 30 mg/kg PO) | Total Minutes (Mean ± SEM) NREMS for 12-Hour Postinjection (1 mg/kg PO) | Effect on NREMS in rats during the 12-hour period following injection (rats, 1, 3, and 20 mg/kg PO) |
| --- | --- | --- | --- | --- | --- | --- |
| C[C@H]1CC(CN)(CC(=O)O)C[C@@H]1C [Compound 1] | 401 ± 8 min | 409 ± 12 min | 424 ± 6 min | significantly increased NREMS |  |  |
| CCC[C@@H](C)C[C@H](CN)CC(=O)O [Compound 2, (3S, 5R)-3-Aminomethyl-5-methyl-octanoic acid] | 451 ± 9 min | 481 ± 6 min |  |  | 432 ± 8 min | significantly increased NREMS |
